Calls of active or inactive are those of the source.
Columns and labels:
Mycoplasma capricolum [1] = assay: Antimicrobial activity against wild-type Mycoplasma capricolum at 1 to 3 ug/ml; format: functional
Mycoplasma genitalium = assay: Antimicrobial activity against wild-type Mycoplasma genitalium at 1 to 3 ug/ml; format: functional; details: Mycoplasmoides genitalium
Mycoplasma capricolum [2] = assay: Antimicrobial activity against wild-type Mycoplasma capricolum at 3.7 ug/ml; format: functional
Escherichia coli = assay: Antimicrobial activity against Escherichia coli at 10 to 50 ug/ml; format: functional, organism-based
[3] = tested on: Mycoplasmoides pneumoniae; assay: Antimicrobial activity against wild-type Mycoplasma pneumoniae at 1 to 3 ug/ml; format: functional, organism-based
[4] = tested on: Mycoplasmoides gallisepticum; assay: Antimicrobial activity against wild-type Mycoplasma gallisepticum at 1 to 3 ug/ml; format: functional, organism-based
Mycoplasma mycoides = assay: Antimicrobial activity against wild-type Mycoplasma mycoides at 1 to 3 ug/ml; format: functional

Measured: Activity

COc1ccc(C[C@H](N)C(=O)N[C@H]2[C@@H](O)[C@H](n3cnc4c(N(C)C)ncnc43)O[C@@H]2CO)cc1
active: all assays above

Source: ChEMBL document CHEMBL1649245
